Experimental data published in ChEMBL document CHEMBL4265882, “Tetrahydroquinoline and tetrahydroisoquinoline derivatives as potential selective PDE4B inhibitors” (Bioorg Med Chem Lett, 2018).

Tests used:
[1] = target: 3',5'-cyclic-AMP phosphodiesterase 4B (Homo sapiens, UniProt Q07343); assay: Inhibition of human U937 cells-derived PDE4B using [3H]-cAMP as substrate after 30 mins
[2] = target: 3',5'-cyclic-AMP phosphodiesterase 4D (Homo sapiens, UniProt Q08499); assay: Inhibition of human U937 cells-derived PDE4D using [3H]-cAMP as substrate after 30 mins
Homo sapiens = species on record: Homo sapiens; assay: Selectivity index, ratio of IC50 for human U937 cells-derived PDE4D to IC50 for human U937 cells-derived PDE4B
[3] = Inhibition of PDE4 in human PBMC assessed as reduction in LPS-stimulated TNFalpha release preincubated for 30 mins followed by LPS stimulation for 18 hrs by TR-FRET assay; type: cell-based
Mus musculus = assay: Anti-inflammatory activity in Swiss albino mouse model of sepsis assessed as inhibition of LPS-induced TNFalpha release at 10 mg/kg, po administered 30 mins prior to LPS challenge for 90 mins by ELISA relative to control; type: functional
Rattus norvegicus = assay: Anti-inflammatory activity in Sprague-Dawley rat model of LPS-induced asthma/COPD assessed as inhibition of neutrophilia in BALF at 10 mg/kg, po administered 30 mins prior to LPS challenge for 40 mins and measured after 6 hrs relative to control; type: functional

3',5'-cyclic-AMP phosphodiesterase 4D, sequence (Q08499 whole entry): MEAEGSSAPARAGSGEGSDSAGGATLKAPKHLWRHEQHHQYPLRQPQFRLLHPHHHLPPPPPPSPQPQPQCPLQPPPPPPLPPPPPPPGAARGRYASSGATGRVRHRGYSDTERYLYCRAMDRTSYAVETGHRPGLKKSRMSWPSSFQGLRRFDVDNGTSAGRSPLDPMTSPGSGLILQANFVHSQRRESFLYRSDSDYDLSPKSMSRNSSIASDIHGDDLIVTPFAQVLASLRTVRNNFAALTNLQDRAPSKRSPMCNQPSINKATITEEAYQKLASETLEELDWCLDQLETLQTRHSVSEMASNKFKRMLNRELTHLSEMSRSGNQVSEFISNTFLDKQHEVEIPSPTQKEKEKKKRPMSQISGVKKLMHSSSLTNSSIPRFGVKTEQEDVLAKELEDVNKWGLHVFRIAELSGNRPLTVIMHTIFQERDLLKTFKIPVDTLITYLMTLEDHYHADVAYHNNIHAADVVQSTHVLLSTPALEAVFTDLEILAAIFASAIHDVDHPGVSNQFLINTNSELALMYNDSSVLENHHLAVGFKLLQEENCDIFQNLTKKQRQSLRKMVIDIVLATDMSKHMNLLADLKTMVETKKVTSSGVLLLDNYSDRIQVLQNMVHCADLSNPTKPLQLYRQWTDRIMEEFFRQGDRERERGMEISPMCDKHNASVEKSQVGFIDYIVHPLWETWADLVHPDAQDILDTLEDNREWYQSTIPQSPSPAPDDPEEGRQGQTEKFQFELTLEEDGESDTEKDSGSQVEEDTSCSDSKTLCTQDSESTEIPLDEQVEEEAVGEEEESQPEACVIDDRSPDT
3',5'-cyclic-AMP phosphodiesterase 4B, sequence (Q07343 whole entry): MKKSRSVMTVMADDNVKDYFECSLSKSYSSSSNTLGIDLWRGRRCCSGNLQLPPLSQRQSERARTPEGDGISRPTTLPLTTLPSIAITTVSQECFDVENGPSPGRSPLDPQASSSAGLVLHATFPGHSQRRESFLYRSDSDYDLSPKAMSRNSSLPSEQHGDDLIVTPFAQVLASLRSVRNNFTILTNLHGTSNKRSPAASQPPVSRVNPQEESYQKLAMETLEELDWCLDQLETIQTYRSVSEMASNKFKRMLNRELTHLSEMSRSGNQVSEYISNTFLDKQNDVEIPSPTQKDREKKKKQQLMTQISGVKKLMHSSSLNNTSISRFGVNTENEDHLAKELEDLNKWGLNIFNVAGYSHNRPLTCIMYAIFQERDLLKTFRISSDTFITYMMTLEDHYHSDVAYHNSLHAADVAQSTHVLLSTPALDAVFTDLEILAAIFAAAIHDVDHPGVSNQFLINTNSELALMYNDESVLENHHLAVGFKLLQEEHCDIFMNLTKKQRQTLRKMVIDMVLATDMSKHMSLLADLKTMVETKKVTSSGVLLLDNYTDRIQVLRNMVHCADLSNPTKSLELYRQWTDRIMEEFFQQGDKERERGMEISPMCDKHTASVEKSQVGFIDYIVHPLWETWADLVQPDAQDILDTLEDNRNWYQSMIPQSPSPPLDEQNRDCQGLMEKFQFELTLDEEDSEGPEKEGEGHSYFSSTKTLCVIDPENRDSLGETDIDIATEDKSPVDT

SMILES	IC50 [1]	IC50 [2]	Ratio IC50 (Homo sapiens)	IC50 [3]	inhibition in vivo at 10 mg/kg (Mus musculus)	inhibition in vivo at 10 mg/kg (Rattus norvegicus)
O=C(c1ccc(-c2ccc([N+](=O)[O-])cc2)o1)N1CCc2ccccc2C1	15.8 µM	88.3 µM	5.39	46.3 µM		
Cc1ccc(-c2ccc(C(=O)N3CCc4ccccc4C3)o2)cc1	9.4 µM	56.8 µM	6.04	44.1 µM		
O=C(c1ccc(-c2cccc([N+](=O)[O-])c2)o1)N1CCc2ccccc2C1	39.9 µM			72.5 µM		
O=C(c1ccc(-c2c(F)cccc2F)o1)N1CCc2ccccc2C1	17.1 µM	89.2 µM	4.21	91.9 µM		
O=C(c1ccc(-c2ccccc2Cl)o1)N1CCc2ccccc2C1	51.6 µM			121 µM		
O=C(c1ccc(-c2ccc(Cl)cc2)o1)N1CCc2ccccc2C1	4.1 µM	25.2 µM	6.14	28.6 µM		
O=C(c1ccc(-c2ccccc2Cl)o1)N1CCCc2ccccc21	41.6 µM			101 µM		
O=C(c1ccc(-c2ccc(F)cc2)o1)N1CCc2ccccc2C1	7.4 µM	49.3 µM	6.66	27.2 µM		
O=C(c1ccc(-c2ccccc2[N+](=O)[O-])o1)N1CCCc2ccccc21	66.9 µM			128 µM		
O=C(c1ccc(-c2ccc(F)cc2)o1)N1CCCc2ccccc21	6.1 µM	40.3 µM	6.6	22.1 µM		
COc1ccc(C2CNC(=O)C2)cc1OC1CCCC1 (stereo unspecified) [ROLIPRAM]				18.9 µM	42.9%	34.2%
O=C(c1ccc(-c2cccc(Cl)c2)o1)N1CCc2ccccc2C1	21.1 µM			57.1 µM		
O=C(c1ccc(-c2ccccc2)o1)N1CCCc2ccccc21	70.9 µM			142 µM		
Cc1ccc(-c2ccc(C(=O)N3CCCc4ccccc43)o2)cc1	9.4 µM	50.1 µM	5.33	35.2 µM		
O=C(c1ccc(-c2cccc(Cl)c2)o1)N1CCCc2ccccc21	18.9 µM	96.8 µM	5.12	62.5 µM		
O=C(c1ccc(-c2cccc(F)c2)o1)N1CCc2ccccc2C1	25.7 µM			78.1 µM		

SMILES	IC50 [1]	IC50 [2]	Ratio IC50 (Homo sapiens)	IC50 [3]	inhibition in vivo at 10 mg/kg (Mus musculus)	inhibition in vivo at 10 mg/kg (Rattus norvegicus)
COc1ccc(-c2ccc(C(=O)N3CCCc4ccccc43)o2)cc1	1.5 µM	10.3 µM	6.86	11.8 µM	46.8%	40.1%
O=C(c1ccc(-c2ccccc2F)o1)N1CCCc2ccccc21	50.3 µM			92.8 µM		
O=C(c1ccc(-c2ccc([N+](=O)[O-])cc2)o1)N1CCCc2ccccc21	12.1 µM	77.2 µM	6.38	46.8 µM		
O=C(c1ccc(-c2cccc(F)c2)o1)N1CCCc2ccccc21	22.2 µM			64.3 µM		
O=C(c1ccc(-c2ccccc2)o1)N1CCc2ccccc2C1	79.6 µM			188 µM		
O=C(c1ccc(-c2ccccc2[N+](=O)[O-])o1)N1CCc2ccccc2C1	66.3 µM			151 µM		
O=C(c1ccc(-c2ccc(Br)cc2)o1)N1CCc2ccccc2C1	58.4 µM			156 µM		
COc1ccc(-c2ccc(C(=O)N3CCc4ccccc4C3)o2)cc1	2.6 µM	10.2 µM	3.92	13.6 µM	39.2%	32.7%
O=C(c1ccc(-c2ccc(Br)cc2)o1)N1CCCc2ccccc21	46.8 µM			131 µM		
O=C(c1ccc(-c2c(F)cccc2F)o1)N1CCCc2ccccc21	15.2 µM	81.3 µM	5.34	89.3 µM		
O=C(c1ccc(-c2ccc(F)cc2F)o1)N1CCCc2ccccc21	2.6 µM	15.6 µM	6	16.2 µM	39.6%	34.1%
O=C(c1ccc(-c2cccc([N+](=O)[O-])c2)o1)N1CCCc2ccccc21	30.9 µM			62.3 µM		
O=C(c1ccc(-c2ccc(Cl)cc2)o1)N1CCCc2ccccc21	3.5 µM	21.3 µM	6.09	27.2 µM		
O=C(c1ccc(-c2ccc(F)cc2F)o1)N1CCc2ccccc2C1	3 µM	18.1 µM	6.03	17.1 µM	30.8%	29.5%
O=C(c1ccc(-c2ccccc2F)o1)N1CCc2ccccc2C1	46.1 µM			95.4 µM		
